# Measured values from patent publication US6353009B1, “Method for the treatment and prevention of hyperuricemia” (Sankyo Company, Limited, priority 1997, dated 2002).
# Where “and” joins values, the source holds several entries; their conditions need not be identical. Equal values may be shown once.
# Tests used:
# [1] = test system: blood uric acid; assay: Improvement in hyperuricemia: blood uric acid level in patients given troglitazone; type: in vivo, human
# Description: The level of uric acid in the blood of a patient may be measured in a conventional manner. Specifically, blood is collected before and after the administration, for a predetermined period, of a medicament to a patient suffering from hyperuricemia and then the blood uric acid level is measured, for example, by the uricase catalase method [Kageyama: Clin. Chim. Acta., 31, 421-426 (1971)]. A measuring kit employing the above method is commercially available (“Uricolor 400”, trade name; product of Ono Pharmaceutical Co., Ltd.)
# 4 adult human patients who had suffered from diabetes and hyperuricemia and whose blood uric acid level was not less than 7.0 mg/dl, were administered orally 200 mg of troglitazone twice a day (in the morning and in the evening). This administration was continued for 4 weeks. Both after and before administration, blood was collected and the blood uric acid level was measured.
# [2] = test system: uric acid; conditions: clinical examination values, Rinsho Iyaku 9, Suppl.3, 14 (1993), cited from earlier work
# [3] = test system: ddY mice (male); type: in vivo; conditions: 300 mg/kg orally, three male ddY mice, observed for 5 days
# Description: The acute toxicity of troglitazone was measured in a conventional manner. Specifically, 300 mg/kg of troglitazone was administered orally to three ddY mice (male), which were then observed for 5 days.
structure (smiles),measurement,setting,value
"Cc1c(C)c2c(c(C)c1O)CCC(C)(COc1ccc(CC3SC(=O)NC3=O)cc1)O2 (stereo not drawn) [troglitazone, 5-[4-(6-hydroxy-2,5,7,8-tetramethylchroman-2-ylmethoxy)benzyl]thiazolidine-2,4-dione]","Blood uric acid level, Week 4","[1]; adult human patients with diabetes and hyperuricemia, 200 mg orally twice a day for 4 weeks",5.2 mg/dL and 5.3 mg/dL and 5.6 mg/dL
same,"Blood uric acid level, Week 0","[1]; adult human patients with diabetes and hyperuricemia, before administration (baseline)",7.2 mg/dL and 7.6 mg/dL and 7.9 mg/dL
same,blood uric acid level after administration (summary of the Table),"[1]; patients with blood uric acid 7.0 mg/dl or greater, 200 mg orally twice a day, 4 weeks, normal range",≤ 6.0 mg/dL
same,uric acid level before administration,[2]; baseline,4.7±1.7
same,uric acid level after administration,[2],4.4±1.4
same,survival (acute toxicity),[3],All of them survived
